Assay [1] has as its system STZ-NA induced diabetes mice model. Kind of assay: In vivo antidiabetic effect in STZ-NA induced diabetes mice model. The arrangement: species or system CD1 mice. The conditions noted are these: 100 mg/kg single dose, intragastric. The procedure: Glibenclamide was used as a positive control, in order to ensure that the damage over β-cells was partial and mice pancreas still produces insulin, that responds to a secretagogue such as sulfonylurea drug used in this work.
CD1 mice (20–25 g) were housed in groups of six (n = 6) under laboratory conditions. Before experimentation, all animals were fasted for 16 h with water ad libitum. All animal procedures were conducted in accordance with the Mexican Federal Regulations for Animal Experimentation and Care (SAGARPA, NOM-062-ZOO-1999), based on US National Institutes of Health Publication #85-23, revised 1985. Non-insulin-dependent diabetes mice model was induced in overnight fasted mice by a single i.p. injection of 100 mg/kg STZ, 15 min before the i.p. administration of 40 mg/kg of NA. Hyperglycaemia was established by the higher plasma glucose concentration, determined by glucometer after 2 weeks. The animals with glycaemia higher than 200 mg/dL were selected for the assay. The diabetic mice were separated into […] of six animals each (n = 6). Mice of experimental groups were administered with a suspension of the molecules 1–3 (100 mg/kg, prepared in 10% (v/v) tween 80). Control group mice were similarly treated with 10% tween 80. […] The samples of blood were collected from the caudal vein at 0, 1, 3, 5 and 7 h after administration of each compound. Blood glucose levels were estimated using a commercial glucometer. The percentage variation of glycemia for each group was calculated. Values are expressed as mean ± S.E.M. Statistical significance was estimated by ANOVA.

The next assay has as its target GPR40 (Homo sapiens, UniProt O14842). Kind of assay: GPR40 agonist calcium flux assay in hGPR40/Gα16/HEK293 cells. The following applies: for Emax at 100 µM: HEK293, read-out: Maximal Response % (100 μM). A general note: Calcium assays in cells follow changes in intracellular calcium, usually with a dye or a luminescent sensor.
For the next assay, the system named is GLUT-4. Kind of assay: Relative mRNA expression of GLUT-4 in 3T3-L1 adipocytes. In kind it is cell-based. The conditions noted are these: 24 h treatment. The text has this: 3T3-L1 fibroblasts were differentiated to the adipocyte phenotype in order to determine the action of compounds on PPARγ and GLUT-4 expression. […] The activation of PPARγ could reduce the glucose levels in diabetic patients due to insulin resistance reduction. […] Several evidences indicate that increased levels of GLUT-4 expression in skeletal muscle are critical for the regulation of glucose homeostasis.
Both assays were achieved as described elsewhere. Briefly: 3T3-L1 fibroblasts (9 × 10^5 cells per well) were cultured in 6-well plates in Dulbecco’s modified Eagle’s medium. After 2 days of confluence, the cells were differentiated to the adipocyte phenotype with 0.5 mM 3-isobutyl-1-methylxanthine, 0.25 μM dexamethasone acetate, and 0.8 μM insulin, for 48 h, followed by insulin alone for other 48 h. To determine the action of compounds on PPARγ and GLUT-4 expression, the cells were treated 24 h. RNA was isolated from cultured cells and two μg of total RNA were reverse-transcripted in a thermocycler. The enzyme was inactivated and finally samples were cooled. […] PCR was conducted and the threshold cycles (Ct) were measured in separate tubes and in duplicate. The ΔCt values were calculated in every sample for each gene of interest. Relative changes in the expression level of one specific gene (ΔΔCt) were calculated.

The target in another assay is human recombinant AKR1B1 (Homo sapiens, UniProt P15121). Kind of assay: Aldose reductase (AKR1B1) inhibition assay.

Sequence of GPR40 (O14842 whole entry): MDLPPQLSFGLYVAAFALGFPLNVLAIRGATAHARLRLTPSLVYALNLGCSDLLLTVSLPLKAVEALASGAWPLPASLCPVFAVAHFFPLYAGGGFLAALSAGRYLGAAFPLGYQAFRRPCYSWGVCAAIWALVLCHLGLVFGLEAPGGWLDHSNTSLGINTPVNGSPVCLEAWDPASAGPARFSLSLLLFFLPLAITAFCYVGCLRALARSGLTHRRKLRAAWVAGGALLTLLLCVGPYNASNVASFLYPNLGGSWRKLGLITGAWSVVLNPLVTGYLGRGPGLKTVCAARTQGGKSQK
Procedure for GPR40: Linoleic acid (LA), one of the endogenous ligands for GPR40, was designated as positive control.
This bioassay was previously described [2]. Briefly: About 4 × 10^4 h GPR40/HEK293 per well were seeded in 96-well plate. After culturing for 24 h, cells were loaded with 2 μmol/L Fluo-4 AM in Hanks’ balanced salt solution at 37 °C for 40 min.
Procedure for human recombinant AKR1B1: Human recombinant AKR1B1 was purified by electrophoretic homogeneity as previously described [24]. The enzyme activity was corroborated at 37 °C following the decrease of absorbance at 340 nm. […] IC50 values was determined by nonlinear regression analysis. For each curve, five different concentrations of compounds were analyzed [25].

For orientation: EC50 means the concentration that produces a half-maximal response. Turning to `O=C(O)CCc1ccc(OCc2cccc(-c3ccccc3)c2)cc1` [Compound 1, 3-[4-(Biphenyl-3-ylmethoxy)phenyl]propanoic acid], the “In vivo antidiabetic activity (in words)” value in assay [1] (STZ-NA diabetic mice) was “lack of in vivo activity”. For the same molecule, at GPR40, the EC50 stood at 0.075 ± 0.02 µM and the Emax at 100 µM turned out to be 98 ± 10%.
Turning to `O=C(O)CCc1ccc(OCc2cccc3ccccc23)cc1` [Compound 2, 3-[4-(1-Naphthylmethoxy)phenyl]propanoic acid], the “Increase in GLUT-4 levels (mRNA expression)” value in the assay with GLUT-4 lay within 2 to 4 times. Also, the “Decrease of blood glucose levels” value in assay [1] (7 h after administration, STZ-NA diabetic mice) is on record as roughly 80%.
With `N#Cc1ccccc1-c1ccc(COc2ccc(CCC(=O)O)cc2)cc1` [Compound 3, 3-{4-[(2′-Cyanobiphenyl-4-yl)methoxy]phenyl} propanoic acid], the “Increase in GLUT-4 levels (mRNA expression)” value in the assay with GLUT-4 was 2 to 4 times. The “Glucose lowering effect (variation of glycemia)” value in assay [1] (at 3 h) is −20%; in assay [1] (at 5 h) it was −50%; in assay [1] (at 7 h), −60%.
For `O=C(O)CCc1ccc(OCc2ccc3ccccc3n2)cc1` [Compound 4, 3-[4-(Quinolin-2-ylmethoxy)phenyl]propanoic acid], at GPR40, the EC50 is roughly 100 µM and the Emax at 100 µM came to 84%.
The IC50 is the concentration that inhibits the measured activity by half. Consider `O=C(O)CCc1ccc(OCC(=O)Nc2nc3ccccc3s2)cc1` [Compound 5, 3-{4-[2-(1,3-Benzothiazol-2-ylamino)-2 oxoethoxy]phenyl}propanoic Acid], for which the IC50 at human recombinant AKR1B1 turned out to be 23.3 µM. On GPR40, the EC50 is greater than 100 µM and the Emax at 100 µM was 9.9%. Besides, the “GPR40 agonistic activity (in words)” value at GPR40 (calcium assay) was “inactive”.
As to `CCCCC/C=C\C/C=C\CCCCCCCC(=O)O` [LA, Linoleic acid, reference compound], on GPR40, the EC50 was found to be 8.3 ± 1.7 µM and the Emax at 100 µM was determined as 100%.

The record behind these values is paper PMC6017591, “Design, Synthesis and in Combo Antidiabetic Bioevaluation of Multitarget Phenylpropanoic Acids” (Molecules : A Journal of Synthetic Chemistry and Natural …, 2018).
